From ChEMBL document CHEMBL2010665, “Novel, druglike 1,7-disubstituted 2,3,4,5-tetrahydro-1H-benzo[b]azepine-based selective inhibitors of human neuronal nitric oxide synthase (nNOS)” (Bioorg Med Chem Lett, 2012) come the findings set out here.

Series [1] deals with Nitric oxide synthase 1 (Homo sapiens, UniProt P29475). Briefly: Inhibition of human recombinant nNOS expressed in baculovirus infected insect sf9 cells assessed as conversion of [3H]-L-arginine into [3H]-L-citrulline by radiometric method.
Series [2] addresses T1, Nitric oxide synthase 3 (Homo sapiens, UniProt P29474).
T1 sequence (P29474 whole entry): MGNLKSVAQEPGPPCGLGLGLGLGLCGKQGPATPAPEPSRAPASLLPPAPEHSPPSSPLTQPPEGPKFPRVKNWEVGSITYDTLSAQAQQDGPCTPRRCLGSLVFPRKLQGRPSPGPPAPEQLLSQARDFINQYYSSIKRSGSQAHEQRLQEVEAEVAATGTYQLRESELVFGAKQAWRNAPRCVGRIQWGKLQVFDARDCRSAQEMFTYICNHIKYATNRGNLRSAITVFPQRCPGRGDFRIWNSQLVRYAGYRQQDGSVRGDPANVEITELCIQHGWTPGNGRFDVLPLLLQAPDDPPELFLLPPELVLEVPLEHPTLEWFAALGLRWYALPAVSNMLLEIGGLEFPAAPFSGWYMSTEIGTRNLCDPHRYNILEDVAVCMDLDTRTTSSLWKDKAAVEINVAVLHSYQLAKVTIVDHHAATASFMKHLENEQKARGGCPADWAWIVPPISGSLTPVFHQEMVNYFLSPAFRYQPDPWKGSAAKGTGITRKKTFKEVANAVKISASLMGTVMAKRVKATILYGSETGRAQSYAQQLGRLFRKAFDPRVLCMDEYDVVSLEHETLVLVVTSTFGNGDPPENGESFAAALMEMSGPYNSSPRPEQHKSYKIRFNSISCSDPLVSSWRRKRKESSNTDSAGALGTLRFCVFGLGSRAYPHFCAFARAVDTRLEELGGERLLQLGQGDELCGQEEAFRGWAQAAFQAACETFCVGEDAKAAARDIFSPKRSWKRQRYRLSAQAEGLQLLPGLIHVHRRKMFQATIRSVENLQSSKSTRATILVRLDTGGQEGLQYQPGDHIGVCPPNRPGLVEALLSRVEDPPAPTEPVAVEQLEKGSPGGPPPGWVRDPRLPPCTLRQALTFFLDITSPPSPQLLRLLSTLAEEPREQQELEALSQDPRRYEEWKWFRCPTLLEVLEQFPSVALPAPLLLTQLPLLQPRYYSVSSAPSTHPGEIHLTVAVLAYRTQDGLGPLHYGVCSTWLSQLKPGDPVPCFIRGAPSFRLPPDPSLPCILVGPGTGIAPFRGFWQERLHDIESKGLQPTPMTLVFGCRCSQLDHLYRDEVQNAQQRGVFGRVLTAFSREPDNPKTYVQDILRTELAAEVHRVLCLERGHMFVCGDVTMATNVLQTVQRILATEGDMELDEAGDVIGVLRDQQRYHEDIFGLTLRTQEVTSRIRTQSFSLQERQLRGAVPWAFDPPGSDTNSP
Nature of the series: Inhibition of human recombinant eNOS expressed in baculovirus infected insect sf9 cells assessed as conversion of [3H]-L-arginine into [3H]-L-citrulline by radiometric method.

Series [3] addresses Nitric oxide synthase, inducible (Homo sapiens, UniProt P35228). Nature of the series: Inhibition of human recombinant iNOS expressed in baculovirus infected insect sf9 cells assessed as conversion of [3H]-L-arginine into [3H]-L-citrulline by radiometric method.
Series [4] deals with Voltage-gated inwardly rectifying potassium channel KCNH2 (Homo sapiens, UniProt Q12809). Nature of the series: Inhibition of human Erg expressed in HEK293 cells up to 30 uM by patch clamp assay. The format is cell-based.
Series [5] concerns the target Nitric oxide synthase, inducible (Rattus norvegicus, UniProt Q06518). Nature of the series: Inhibition of rat iNOS.

In general, IC50 refers to the concentration needed to halve the response being measured.

Molecules are shown by their SMILES.

Sequence of Nitric oxide synthase, inducible (Homo sapiens, UniProt P35228) (P35228 whole entry): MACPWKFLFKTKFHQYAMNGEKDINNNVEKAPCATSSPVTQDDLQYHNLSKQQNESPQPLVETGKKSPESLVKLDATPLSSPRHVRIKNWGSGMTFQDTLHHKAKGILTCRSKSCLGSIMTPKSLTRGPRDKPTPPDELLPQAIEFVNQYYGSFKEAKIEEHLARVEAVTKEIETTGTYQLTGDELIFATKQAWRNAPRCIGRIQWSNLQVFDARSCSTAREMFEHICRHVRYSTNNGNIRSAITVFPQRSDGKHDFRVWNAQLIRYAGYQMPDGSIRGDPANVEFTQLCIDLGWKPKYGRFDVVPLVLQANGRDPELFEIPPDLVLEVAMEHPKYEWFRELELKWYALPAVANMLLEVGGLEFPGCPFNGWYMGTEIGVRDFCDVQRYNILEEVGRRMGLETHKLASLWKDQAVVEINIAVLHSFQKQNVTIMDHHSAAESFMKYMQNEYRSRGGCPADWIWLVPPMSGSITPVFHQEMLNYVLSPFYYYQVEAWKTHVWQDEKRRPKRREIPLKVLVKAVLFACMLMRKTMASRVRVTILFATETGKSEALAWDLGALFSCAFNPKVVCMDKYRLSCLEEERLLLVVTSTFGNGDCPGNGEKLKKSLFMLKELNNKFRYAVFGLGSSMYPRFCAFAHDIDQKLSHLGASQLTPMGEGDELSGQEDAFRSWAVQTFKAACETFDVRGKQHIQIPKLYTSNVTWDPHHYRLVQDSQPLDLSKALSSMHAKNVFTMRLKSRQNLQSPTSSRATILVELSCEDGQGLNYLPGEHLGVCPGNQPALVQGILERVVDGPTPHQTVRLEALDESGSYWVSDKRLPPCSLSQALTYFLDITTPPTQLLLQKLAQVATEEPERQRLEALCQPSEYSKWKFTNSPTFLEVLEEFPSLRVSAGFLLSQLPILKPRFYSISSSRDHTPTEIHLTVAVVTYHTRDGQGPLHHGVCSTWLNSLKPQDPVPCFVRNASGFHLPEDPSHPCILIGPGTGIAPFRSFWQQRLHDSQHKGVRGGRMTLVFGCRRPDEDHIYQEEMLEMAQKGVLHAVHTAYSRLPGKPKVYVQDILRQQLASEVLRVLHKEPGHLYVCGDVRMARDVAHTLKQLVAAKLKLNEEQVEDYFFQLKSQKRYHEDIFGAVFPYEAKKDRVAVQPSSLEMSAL
Sequence of Nitric oxide synthase 1 (P29475 whole entry): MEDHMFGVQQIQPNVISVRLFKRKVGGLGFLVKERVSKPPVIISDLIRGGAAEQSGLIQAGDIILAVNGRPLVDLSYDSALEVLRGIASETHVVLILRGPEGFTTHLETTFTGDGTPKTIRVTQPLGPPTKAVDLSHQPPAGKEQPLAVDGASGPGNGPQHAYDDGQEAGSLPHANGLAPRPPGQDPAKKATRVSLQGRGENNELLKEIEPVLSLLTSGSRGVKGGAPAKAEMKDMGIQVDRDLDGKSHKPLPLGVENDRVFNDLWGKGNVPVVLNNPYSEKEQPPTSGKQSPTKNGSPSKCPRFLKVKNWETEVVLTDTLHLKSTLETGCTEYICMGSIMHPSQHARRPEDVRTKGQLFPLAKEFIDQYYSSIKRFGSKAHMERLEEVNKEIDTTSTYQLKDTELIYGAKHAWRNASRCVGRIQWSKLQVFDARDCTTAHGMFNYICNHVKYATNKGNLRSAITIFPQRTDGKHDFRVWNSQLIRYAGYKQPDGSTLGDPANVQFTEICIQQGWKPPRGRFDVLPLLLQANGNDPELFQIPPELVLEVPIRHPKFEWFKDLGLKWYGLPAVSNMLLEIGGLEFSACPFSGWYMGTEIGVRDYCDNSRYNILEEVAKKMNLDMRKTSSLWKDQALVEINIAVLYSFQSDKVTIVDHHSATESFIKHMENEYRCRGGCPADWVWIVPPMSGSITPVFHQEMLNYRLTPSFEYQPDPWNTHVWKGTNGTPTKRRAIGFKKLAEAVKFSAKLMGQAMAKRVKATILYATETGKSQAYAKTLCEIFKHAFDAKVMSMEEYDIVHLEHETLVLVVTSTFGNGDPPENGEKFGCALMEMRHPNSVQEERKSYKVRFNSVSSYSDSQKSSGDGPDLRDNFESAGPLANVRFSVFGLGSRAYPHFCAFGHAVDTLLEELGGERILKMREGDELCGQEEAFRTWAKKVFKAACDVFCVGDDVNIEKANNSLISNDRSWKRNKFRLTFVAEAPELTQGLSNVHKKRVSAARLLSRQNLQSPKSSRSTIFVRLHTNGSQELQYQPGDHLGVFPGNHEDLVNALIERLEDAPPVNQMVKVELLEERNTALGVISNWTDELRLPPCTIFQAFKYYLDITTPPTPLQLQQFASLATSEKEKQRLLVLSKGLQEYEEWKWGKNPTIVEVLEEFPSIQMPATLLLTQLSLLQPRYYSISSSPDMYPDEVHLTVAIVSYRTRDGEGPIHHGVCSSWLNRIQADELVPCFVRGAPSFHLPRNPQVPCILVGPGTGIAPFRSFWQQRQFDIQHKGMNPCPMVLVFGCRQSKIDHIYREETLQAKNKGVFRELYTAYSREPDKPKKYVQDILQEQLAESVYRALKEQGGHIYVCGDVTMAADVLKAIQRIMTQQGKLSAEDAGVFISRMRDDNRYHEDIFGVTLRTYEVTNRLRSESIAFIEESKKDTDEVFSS
Sequence of Nitric oxide synthase, inducible (Rattus norvegicus, UniProt Q06518) (Q06518 whole entry): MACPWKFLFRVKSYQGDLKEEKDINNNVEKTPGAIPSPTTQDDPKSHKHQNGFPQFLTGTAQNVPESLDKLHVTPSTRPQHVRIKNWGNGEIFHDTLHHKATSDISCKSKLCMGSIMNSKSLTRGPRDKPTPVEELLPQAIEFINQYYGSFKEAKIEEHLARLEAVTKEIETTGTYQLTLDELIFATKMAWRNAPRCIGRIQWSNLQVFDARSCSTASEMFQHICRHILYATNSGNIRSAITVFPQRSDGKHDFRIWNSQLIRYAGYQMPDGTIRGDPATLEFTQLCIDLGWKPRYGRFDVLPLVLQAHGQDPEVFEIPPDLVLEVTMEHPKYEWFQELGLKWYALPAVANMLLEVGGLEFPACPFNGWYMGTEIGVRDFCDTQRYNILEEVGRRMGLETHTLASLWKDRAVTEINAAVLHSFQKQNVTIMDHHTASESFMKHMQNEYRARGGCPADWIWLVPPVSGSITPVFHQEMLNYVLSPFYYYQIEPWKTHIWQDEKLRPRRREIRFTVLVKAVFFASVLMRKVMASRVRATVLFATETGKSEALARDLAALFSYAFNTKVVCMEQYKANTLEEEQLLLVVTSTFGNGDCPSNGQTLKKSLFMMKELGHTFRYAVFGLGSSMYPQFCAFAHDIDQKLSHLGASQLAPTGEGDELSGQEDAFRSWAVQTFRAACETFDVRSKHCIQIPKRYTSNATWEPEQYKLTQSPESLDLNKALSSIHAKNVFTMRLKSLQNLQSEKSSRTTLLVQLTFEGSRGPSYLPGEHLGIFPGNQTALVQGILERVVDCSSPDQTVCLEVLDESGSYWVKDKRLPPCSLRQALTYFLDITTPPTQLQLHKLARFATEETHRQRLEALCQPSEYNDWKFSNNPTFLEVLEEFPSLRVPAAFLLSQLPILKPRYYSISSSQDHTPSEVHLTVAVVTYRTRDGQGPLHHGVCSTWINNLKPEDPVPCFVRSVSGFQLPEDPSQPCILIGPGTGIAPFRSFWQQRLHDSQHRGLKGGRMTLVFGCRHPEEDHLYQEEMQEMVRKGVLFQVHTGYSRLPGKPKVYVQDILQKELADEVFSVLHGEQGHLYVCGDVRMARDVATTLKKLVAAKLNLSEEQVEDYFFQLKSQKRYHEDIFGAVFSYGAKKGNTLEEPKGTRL
Sequence of Voltage-gated inwardly rectifying potassium channel KCNH2 (Q12809 whole entry): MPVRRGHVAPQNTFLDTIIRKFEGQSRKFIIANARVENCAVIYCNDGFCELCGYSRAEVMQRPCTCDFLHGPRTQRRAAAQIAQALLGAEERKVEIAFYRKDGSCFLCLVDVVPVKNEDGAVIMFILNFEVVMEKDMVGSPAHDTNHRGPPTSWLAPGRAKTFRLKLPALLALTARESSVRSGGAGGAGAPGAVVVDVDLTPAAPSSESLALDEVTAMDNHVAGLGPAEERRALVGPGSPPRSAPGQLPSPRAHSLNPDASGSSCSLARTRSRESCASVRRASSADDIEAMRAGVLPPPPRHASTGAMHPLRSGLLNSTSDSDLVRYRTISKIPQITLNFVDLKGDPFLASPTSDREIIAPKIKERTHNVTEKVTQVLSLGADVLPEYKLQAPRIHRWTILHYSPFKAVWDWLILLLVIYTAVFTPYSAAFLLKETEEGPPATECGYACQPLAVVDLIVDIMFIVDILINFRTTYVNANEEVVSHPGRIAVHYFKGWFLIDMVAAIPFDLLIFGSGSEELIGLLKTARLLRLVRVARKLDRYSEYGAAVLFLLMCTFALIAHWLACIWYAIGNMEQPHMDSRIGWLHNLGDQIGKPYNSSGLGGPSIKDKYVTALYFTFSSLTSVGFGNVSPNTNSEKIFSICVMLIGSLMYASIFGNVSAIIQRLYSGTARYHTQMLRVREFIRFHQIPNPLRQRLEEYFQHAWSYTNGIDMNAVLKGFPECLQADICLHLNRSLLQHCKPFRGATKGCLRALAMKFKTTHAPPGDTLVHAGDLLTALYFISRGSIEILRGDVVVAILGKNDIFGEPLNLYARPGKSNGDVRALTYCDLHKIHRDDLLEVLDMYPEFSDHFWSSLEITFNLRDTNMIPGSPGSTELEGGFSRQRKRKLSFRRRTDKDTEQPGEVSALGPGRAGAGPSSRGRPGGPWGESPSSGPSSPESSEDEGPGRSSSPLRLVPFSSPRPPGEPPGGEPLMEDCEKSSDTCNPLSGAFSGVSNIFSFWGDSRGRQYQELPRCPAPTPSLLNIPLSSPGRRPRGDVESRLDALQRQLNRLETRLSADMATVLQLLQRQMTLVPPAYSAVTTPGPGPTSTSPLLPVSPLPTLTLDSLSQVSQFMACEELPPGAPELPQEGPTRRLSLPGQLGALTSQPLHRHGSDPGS

As to `N=C(Nc1ccc2c(c1)CCCCN2C1CCNCC1)c1cccs1`, in series [1], the IC50 worked out at 2.38 µM.

For the compound `N=C(Nc1ccc2c(c1)CCCCN2CCN1CCCC1)c1cccs1`, the IC50 came out at 0.16 µM in series [1], 82.2 µM in series [2] and 16.9 µM in series [3].

For `CN(C)CCN1CCCCc2cc(NC(=N)c3cccs3)ccc21.Cl.Cl`, the IC50 in series [3] is 1.5 µM; in series [5], greater than 100 µM. Moreover, in series [4], the “inhibition (INH)” value is “Not Active”.

Take `N=C(Nc1ccc2c(c1)CCCCN2CCN1CCCCC1)c1cccs1`: in series [1], the IC50 was 1.96 µM.

In the case of `CNCCN1CCCCc2cc(NC(=N)c3cccs3)ccc21`, the values for the IC50 in series [1] and in series [3] were 0.1 µM and greater than 100 µM, respectively.

For the compound `N=C(Nc1ccc2c(c1)CCCCN2C1CCNC1)c1cccs1` (racemic), in series [3], the IC50 came to 13.5 µM.

For `CN1CCC(N2CCCCc3cc(NC(=N)c4cccs4)ccc32)C1` (racemic), in series [3], the concentration for half-maximal inhibition (IC50) is greater than 100 µM.

With `CN1CCCC1CCN1CCCCc2cc(NC(=N)c3cccs3)ccc21` (racemic), the figures for the IC50 in series [1] and in series [3] were 1.86 µM and greater than 100 µM, respectively.
